# US20110092484A1, “THERAPEUTIC OR PROPHYLACTIC AGENT FOR CEREBRAL ANEURYSM” (NIPPON CHEMIPHAR CO., LTD., priority 2007, published 2011)
# Entries after “also recorded” stand apart in the source; their conditions may differ.
# What was measured:
# matrix metalloproteases = test: Inhibition of other proteases; format: biochemical
# collagenase IV = test: Collagenase activity in lysate of the whole Willis ring, type IV collagen; format: in vivo; details: treated rats n=5, P=0.044
# Description: (§1) One hundred fifty […] of protein was used in one experiment (n=5 in each group). Collagenase activity was measured using Collagenase Activity Measurement Kit (Life Laboratory). Briefly, fluorescence labeled type I or IV collagen was incubated with the lysate of the whole Willis ring for one hour at 37° C. Undigested fluorescence labeled collagen was extracted in ethanol solution and measured by fluorospectrometer with excitation 496 nm and measurement 520 nm. Collgenase activity (U/ml) was calculated by the fluorescence intensity according to the formula given in the manufacture's direction.
# cathepsin B [1] = biological target: cathepsin B (Homo sapiens, UniProt P07858); test: Inhibition of cathepsin B (IC50); format: biochemical; details: read-out: IC 50 for cathepsin B
# CD68-positive cells = test: Macrophage infiltration around aneurysms (CD68-positive cells counted); format: in vivo, rats; details: 50 mg/kg/day, n=10; control 5.3±1.5; did not differ
# Description: Three months after aneurysm induction, all rats (n=10) were deeply anesthetized and perfused transcardinally with 4% paraformaldehyde. As a control, age-matched male Sprague-Dawley rats were euthanized as described above. The anterior cerebral artery/olfactory artery (ACA/OA) bifurcation was stripped, embedded and cut into 5 μm sections. After blocking with 5% Donkey serum, primary antibodies were incubated for one hour at room temperature followed by incubation with fluorescence labeled secondary antibodies for one hour at room temperature. The secondary antibodies were FITC-conjugated donkey anti-goat IgG antibody, FITC-conjugated donkey anti-rabbit IgG antibody, Cy3-conjugated donkey anti-mouse IgG antibody, and Cy3-conjugated donkey anti-rabbit IgG antibody. Then the slides were covered with PERMAFLUOR (Immunotec) and excited for fluorescence by illumination through a fluorescence microscope system (Olympus). […]
# A total of 18 rats were orally given 50 mg/kg/day of the inhibitor. […] After immunohistochemistry for CD68, the number of CD68-positive cells was counted on each section. Three independent researchers assessed the histopathological changes.
# cathepsin S = cathepsin S (Homo sapiens, UniProt P25774); test: Inhibition of cathepsin S (IC50); format: biochemical; details: read-out: IC 50 for cathepsin S
# Chain of cathepsin S (P25774 115-331, species assumed): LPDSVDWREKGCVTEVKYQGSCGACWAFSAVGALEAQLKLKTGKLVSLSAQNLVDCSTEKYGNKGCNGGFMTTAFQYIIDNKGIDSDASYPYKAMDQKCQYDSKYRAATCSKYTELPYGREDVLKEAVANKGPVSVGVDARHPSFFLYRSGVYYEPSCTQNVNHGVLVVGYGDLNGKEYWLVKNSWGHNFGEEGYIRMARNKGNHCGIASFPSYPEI
# [2] = Serum concentration of the inhibitor in treated rats; format: in vivo; details: 50 mg/kg/day orally in food
# cathepsin B [3] = biological target: T1, cathepsin B (Rattus norvegicus, UniProt P00787); test: Cathepsin B activity in aneurysmal walls, azo-coupling method (in situ); format: in vivo; details: three months after aneurysm induction, treated rats
# T1 construct: from tissue; host or cells: frozen sections of rat cerebral aneurysmal wall (Sprague-Dawley rats)
# T1 sequence (P00787 80-333): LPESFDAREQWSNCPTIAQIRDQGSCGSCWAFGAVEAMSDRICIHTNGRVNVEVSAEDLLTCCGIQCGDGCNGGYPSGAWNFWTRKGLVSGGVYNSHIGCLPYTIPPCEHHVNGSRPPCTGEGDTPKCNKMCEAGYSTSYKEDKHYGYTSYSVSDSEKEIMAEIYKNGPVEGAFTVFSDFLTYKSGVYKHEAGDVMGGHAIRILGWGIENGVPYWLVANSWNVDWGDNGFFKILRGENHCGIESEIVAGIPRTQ
# Description: In order to examine cathepsin B activity in aneurysmal walls, azo-coupling method (in situ) was performed. Three months after aneurysm induction, rats (n=6 in each group) were euthanized as described above. Five μm frozen sections were incubated for one hour at 37° C. with 3.2 mM Z-arg-arg-4-Methoxy-2-Naphthylamine (Cosmo Bio) in 100 mM potassium phosphate buffer containing 10% polyvinyl alcohol, 10 mM dithiothreitol, 2.7 mM L-Cysteine and 1.3 mM EDTA (Sigma). After then, the slides were placed in 125 mg/ml of N-ethylmaleimide in potassium phosphate buffer following at 55° C. for 5 minutes, followed by incubation with Fast Blue Solution (Fast Blue 21 mg/100 ml of potassium phosphate solution, Sigma) for thirty minutes and 0.1M cupric sulfate solution for 15 minutes at room temperature. After washing with physiological saline, the slides were covered with PERMAFLUOR (Immunotec).
# [4] = tested on: experimentally induced cerebral aneurysms; test: Experimentally induced cerebral aneurysm model, histopathology of the ACA/OA bifurcation; format: in vivo, SD (Sprague-Dawley) rats
# Description: After the induction of pentobarbital anesthesia (50 mg/kg), the left common carotid artery and posterior branches of the bilateral renal arteries were ligated at the same time with 10-0 nylon in 7 week-old male SD (Sprague-Dawley) rats. Animals were fed special food containing 8% sodium chloride and 0.12% β-aminopropionitrile (an inhibitor of lysyl oxidase that catalyzes the cross-linking of collagen and elastin). Blood pressure was measured by tail-cuff method. Animal care and experiments complied with Japanese community standards on the care and use of laboratory animals.
# A total of 18 rats were orally given 50 mg/kg/day of the inhibitor. Immediately after aneurysm induction, rats were fed food with (n=18) or without (n=21) 50 mg/kg/day of the inhibitor, and sacrificed after three months. The ACA/OA bifurcation was stripped and observed under a light microscope after Elastica van Gieson staining. Early aneurysmal change refers to a lesion with the discontinuity of the internal elastic lamina without apparent outward bulging of the arterial wall. Advanced aneurysm refers to an obvious outward bulging of the arterial wall with the fragmentation or disappearance of the internal elastic lamina. After immunohistochemistry for CD68, the number of CD68-positive cells was counted on each section. Three independent researchers assessed the histopathological changes.
# The values were expressed as means Standard deviation (SD). Statistical analysis was performed by using Student's t-test for a two-group comparison and one-way ANOVA followed by Fisher test for a multiple comparison. The incidence of aneurysmal changes was analyzed by the use of Fisher's exact test. Differences were considered statistically significant at P<0.05.
# collagenase I = test: Collagenase activity in lysate of the whole Willis ring, type I collagen; format: in vivo; details: treated rats n=5, P=0.014
# Description: as §1
smiles,measurement,setting,value
"CC(C)COC[C@H](CC(C)C)NC(=O)[C@H]1O[C@@H]1C(=O)O [cysteine protease inhibitor, monosodium (2S,3S)-3-[[(1S)-1-isobutoxymethyl-3-methylbutyl]carbamoyl]-oxirane-2-carboxylate]",Inhibition of other proteases such as matrix metalloproteases,matrix metalloproteases,did not inhibit
same,Collagenase IV activity versus control group,collagenase IV,significantly lower
same,IC50,cathepsin B [1],284 nM
same,Macrophage infiltration per 50 μm×50 μm field around aneurysms,CD68-positive cells,4.9±1.7 cells/field
same,IC50,cathepsin S,186 nM
same,Serum concentration,[2],628.5 ± 22.3 nmol/L
same,Cathepsin B activity at the aneurysmal walls versus untreated aneurysm rats,cathepsin B [3],reduced
same,Rats that developed advanced aneurysms,"[4]; 50 mg/kg/day in food, three months after aneurysm induction, control 19 of 21",5 of 10
same,Rats that showed early aneurysmal changes,"[4]; 50 mg/kg/day in food, three months after aneurysm induction, of 10 rats, control 2 of 21",4 rats
same,Incidence of all aneurysmal changes versus control group,"[4]; 50 mg/kg/day, three months",not different
same,Rate (incidence) of advanced aneurysms versus control group,"[4]; 50 mg/kg/day, three months, P=0.022",significantly lower; also recorded: dramatically reduced
same,Collagenase I activity versus control group,collagenase I,significantly lower
